Test results reported in patent US10100030B2 (Kissei Pharmaceutical Co., Ltd., priority 2013, dated 2018).
Where two headings read alike, the source gives them in different places.

Assays:
[1] = Measurement of drug concentrations in the brain after foot-tapping test; assay type: in vivo; details: male; 0.3 mg/kg iv, after foot-tapping was finished, gerbil brain; read-out: Conc. (drug concentration in the brain)
Procedure: (§1) A male gerbil (Japan SLC) was anesthetized with isoflurane, and 0.3 mg/kg of a test compound was administered from the jugular vein. After four hours, GR73632 (5 pmol/5 μl), which is an NK1 receptor agonist, was administered into the cerebral ventricle at the part 1 mm lateral to and 4.5 mm below the bregma in the head, under anesthesia with isoflurane. After the administration, the gerbil was moved to an observation cage, and the foot-tapping period during five minutes after the recovery of the righting reflex was measured. The foot-tapping inhibition rate (%) of each test compound was calculated by the following equation. Foot-tapping inhibition rate (%)={1−(Foot-tapping period when test compound was administered)/(Foot-tapping period when solvent was administered)}×100 (2) Measurement of Drug Concentrations
After foot-tapping was finished, laparotomy was performed immediately under anesthesia with ether, and a blood sample was taken from the abdominal vena cava. At the same time, the brain was extracted. Through a quantitative analysis using liquid chromatography-mass spectrometry (LC/MS), the concentrations of the test compound in the plasma and the brain were measured.
(§2) In the table, Ex. No. means the Example number. Inhibition (%) is the foot-tapping inhibition rate, and Conc. (nM) is the drug concentration in the brain.

CYP3A4 = CYP3A4 (Homo sapiens (Human), UniProt P08684)
CYP3A4, sequence (P08684 whole entry): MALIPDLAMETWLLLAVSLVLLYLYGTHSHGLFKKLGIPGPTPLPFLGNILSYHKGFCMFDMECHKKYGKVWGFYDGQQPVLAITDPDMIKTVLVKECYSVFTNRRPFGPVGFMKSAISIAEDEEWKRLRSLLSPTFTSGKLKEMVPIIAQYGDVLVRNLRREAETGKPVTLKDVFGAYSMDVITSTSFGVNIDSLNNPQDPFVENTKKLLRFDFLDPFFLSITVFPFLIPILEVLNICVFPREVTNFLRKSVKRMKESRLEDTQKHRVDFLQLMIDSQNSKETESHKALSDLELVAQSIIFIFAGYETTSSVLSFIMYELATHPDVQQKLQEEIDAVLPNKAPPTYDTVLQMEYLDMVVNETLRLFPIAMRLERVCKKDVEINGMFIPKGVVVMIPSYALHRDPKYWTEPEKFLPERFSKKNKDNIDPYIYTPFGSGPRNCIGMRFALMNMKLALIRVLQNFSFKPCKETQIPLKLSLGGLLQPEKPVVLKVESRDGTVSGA
Procedure: Enzyme reaction was performed by incubating in a potassium phosphate buffer solution (pH 7.4) containing 1 nM to 20 μM test compound, 3.2 mM magnesium chloride, 0.2 pmol human CYP3A4 (BD Biosciences), 0.5 mM reduced nicotinamide adenine dinucleotide phosphate (NADPH) and 3 μM Luciferin-IPA (Promega) at 37° C. for 10 minutes. The volume of the reaction solution was 50 μL/well. The 30-minute pre-incubation group was incubated at 37° C. for 30 minutes before adding the substrate, the Luciferin-IPA solution (12.5 μL/well). At the end of the enzyme reaction, 50 μL/well of a Luciferin detection reagent (Promega) was added to the wells, and the plate was left at room temperature for 20 minutes. Then, the emission intensities were measured with Infinite M1000 (TECAN). The enzyme activities (%) relative to the value of the group to which the test compound was not added were calculated.

human NK1 receptor [2] = target: T1, human NK1 receptor (Homo sapiens (Human), UniProt P25103); experiment: Affinity for human NK1 receptor (125I-substance P receptor binding test); details: membrane fraction of human NK1 receptor-expressing 293T cells; read-out: IC50 (concentration required for 50% inhibition of 125I-substance P binding)
T1 sequence (P25103 whole entry): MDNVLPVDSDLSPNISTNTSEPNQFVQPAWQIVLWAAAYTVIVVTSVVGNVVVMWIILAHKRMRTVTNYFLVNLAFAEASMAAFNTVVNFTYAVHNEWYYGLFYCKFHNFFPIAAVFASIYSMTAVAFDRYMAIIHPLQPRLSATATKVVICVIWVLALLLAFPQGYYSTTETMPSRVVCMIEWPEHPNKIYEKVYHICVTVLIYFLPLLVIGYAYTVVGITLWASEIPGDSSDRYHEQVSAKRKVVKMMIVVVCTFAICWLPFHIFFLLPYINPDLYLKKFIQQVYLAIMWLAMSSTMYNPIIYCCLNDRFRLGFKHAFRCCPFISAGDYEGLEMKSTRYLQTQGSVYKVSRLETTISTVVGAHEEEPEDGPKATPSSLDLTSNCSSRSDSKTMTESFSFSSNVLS
Procedure: Affinity for Human NK1 Receptor
(3) Measurement of Binding Affinity to Human NK1 Receptor
(3-1) Preparation of Membrane Fraction from Human NK1 Receptor-expressing Cells
Human NK1 receptor-expressing cells were prepared in a 175 cm^2 culture flask (Nippon Becton Dickinson). The formation of a complex of the human NK1 receptor expression plasmid and Lipofectamine 2000 was performed by calculating the culture area ratio and increasing the scale of the method described in the above 2-4 by the ratio. The human NK1 receptor-expressing cells were collected in a buffer solution for the membrane fraction preparation (50 mM Tris (Wako Pure Chemical). 120 mM sodium chloride (Wako Pure Chemical Industries), 5 mM potassium chloride (Wako Pure Chemical Industries), 1 mM ethylenediaminetetraacetic acid (Sigma), 0.002 mg/mL chymostatin (Peptide Institute), 0.04 mg/ bacitracin (Wako Pure Chemical Industries), 0.005 mg/mL phosphoramidon (Peptide Institute) and 0.5 mM phenylmethylsulfonyl fluoride (Wako Pure Chemical Industries), pH7.4) and centrifuged at 1,880 g for 10 minutes, and the cell sediment was suspended in the buffer solution for the membrane fraction preparation. After freezing and thawing the cells once, the cells were homogenized using a Dounce-type homogenizer (cooled on ice, 1000 rpm, 20 times). The homogenized cell suspension was centrifuged at 20,000 rpm for 10 minutes, and the supernatant was removed to obtain cell sediment. The cell sediment was suspended again in the buffer solution for the membrane fraction preparation and homogenized using a Dounce-type homogenizer (cooled on ice, 1000 rpm, 30 times). The cell suspension was centrifuged at 20,000 rpm for 10 minutes, and the supernatant was removed to obtain cell sediment. The same homogenization and centrifugation were repeated again, and final cell sediment was obtained. The final cell sediment was suspended in a buffer solution for the receptor binding test (50 mM Tris (Wako Pure Chemical Industries), 3 mM manganese chloride (Wako Pure Chemical Industries), 0.002 mg/mL chymostatin (Peptide Institute), 0.04 mg/bacitracin (Wako Pure Chemical Industries) and 0.02% bovine serum albumin (Sigma), pH 7.4), and the protein concentration was measured using BCA Protein Assay Kit (Pierce).
(3-2) Receptor Binding Test
The buffer solution for the receptor binding test was dispensed to the wells of a 96-well assay plate (Greiner) at 22.5 μL/well. DMSO solutions of a test compound, which were prepared at an 80-time higher concentration using 100% dimethyl sulfoxide (DMSO), were added to the wells at 2.5 μL/well (final concentrations of 1 nM to 100 nM), and the solutions were mixed. As a radiolabeled ligand, ^125I-substance P (Substance P, [^125I]Tyr^8-, PerkinElmer) was used. ^125I-substance P was diluted with the buffer solution for the receptor binding test to a concentration resulting in […] and added to the 96-well assay plate, and the solutions were mixed. The membrane fraction prepared from the human NK1 receptor-expressing cells was diluted with the buffer solution for the receptor binding test to a concentration resulting in 8 to 10 μg/well, suspended until the suspension became in such a homogenous state that the suspension could flow through as 27G injection needle smoothly and then added to the 96-well assay plate at 150 μL/well. Then, the plate was incubated at room temperature for 60 minutes while shaking the plate. The reaction solutions were suction-filtered. through a multiscreen 96-well filter plate (Millipore) which had been pre-treated with 0.3% polyethyleneimine, and the reaction was terminated by washing with a washing solution (50 mM Tris and 0.02% bovine serum albumin, pH 7.4) four times. The bottom of the microplate was dried at 60° C., and then 100 μL/well of MicroScint 20 (PerkinElmer) was dispensed to the wells. The top of the plate was sealed with TopSeal A (PerkinElmer), and the plate was shaken for 5 to 10 minutes. […]

NK1 receptor = NK1 receptor (Meriones unguiculatus (Mongolian jird) (Gerbillus unguiculatus), UniProt Q5DUB1); experiment: Effect on GR73632-induced foot-tapping; assay type: in vivo; details: 0.3 mg/kg from the jugular vein, GR73632 after four hours, male gerbil
NK1 receptor, sequence (Q5DUB1 whole entry): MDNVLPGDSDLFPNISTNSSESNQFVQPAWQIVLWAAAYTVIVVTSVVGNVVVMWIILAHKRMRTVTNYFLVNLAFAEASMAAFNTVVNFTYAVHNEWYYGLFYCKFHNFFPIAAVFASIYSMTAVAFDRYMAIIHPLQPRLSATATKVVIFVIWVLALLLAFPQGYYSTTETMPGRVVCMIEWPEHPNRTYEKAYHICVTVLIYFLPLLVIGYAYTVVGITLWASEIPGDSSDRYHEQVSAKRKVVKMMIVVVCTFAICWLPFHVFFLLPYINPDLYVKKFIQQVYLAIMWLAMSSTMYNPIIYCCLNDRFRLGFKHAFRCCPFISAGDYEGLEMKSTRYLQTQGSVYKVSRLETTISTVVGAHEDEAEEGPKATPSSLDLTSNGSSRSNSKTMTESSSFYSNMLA
Procedure: (1) Effect on Foot-tapping
as §1, §2

human NK1 receptor [3] = target: T1, human NK1 receptor; experiment: Inhibitory effect on human NK1 receptor (substance P-induced increase in intracellular calcium concentration); assay type: cell-based; details: HEK-293T; substance P 1 μM, compound 0.1 μM; human NK1 receptor-expressing 293T cells; read-out: SPRR (Substance P-Response Remaining)
Procedure: Inhibitory Effect on Human NK1 Receptor
(1) Preparation of Human NK1 Receptor-expressing Cells
Human NK1 receptor-expressing cells were prepared by the same methods as those described in 2-3 and 2-4 of Test Example 1.
(2) Study on Inhibitory Effect on Increase in Intracellular Calcium Concentration
The human NK1 receptor-expressing cells were washed with 300 μL/well of a washing solution (20 mM HEPES/Hank's Balanced Salt Solution (HBSS) […]). A fluorescent calcium indicator (Fluo-4 Direct Calcium Assay Kit, Life Technologies, containing 0.42 mM probenecid and 0.1% bovine serum albumin, prepared according to the protocol of the product) was added to the wells at 150 μL/well, and the plate was incubated at 37° C. for 30 minutes in an incubator. Then, DMSO solutions of a test compound, which were prepared at an 80-time higher concentration using 100% dimethyl sulfoxide (DMSO), were added to the wells at 2.5 μL/well (final concentrations of 0.1, 1 and 10 μM), and the solutions were mixed. Then, the plate was further incubated at 37° C. for 30 minutes in an incubator. After 30 minutes, the intracellular calcium concentrations were measured immediately.
The intracellular calcium concentrations were each measured as a fluorescent signal using FDSS (registered trademark) 7000 (Hamamatsu Photonics). A substance P (Peptide Institute, Inc.) solution which was prepared at 0.4 μM or 4 μM using an assay buffer (20 mM HEPES/Hank's Balanced Salt Solution (HBSS) pH 7.3, containing 0.1% bovine serum albumin) was added automatically to each well at 50 μL/well (final concentration of 0.1 or 1 μM) 10 seconds after starting reading, and the fluorescent signal was measured up to 120 seconds.
The intracellular calcium concentration (%) of the cells to which a test compound was added was calculated by the equation below, where the fluorescent signal of the group to which the vehicle (DMSO) was added was regarded as 100%, and the fluorescent signal before the addition of substance P was regarded as 0%. Intracellular calcium concentration(%)=(Fluorescent signal of test compound addition group)/(Fluorescent signal of vehicle addition group)×100
The intracellular calcium concentration (%) calculated was regarded as the remaining agonist activity of substance P (Substance P-Response Remaining: SPRR). In the table, Ex. No. means the Example number. SPRR (%) is the value obtained when the concentration of substance P was 1 μM and the concentration of the compound was 0.1 μM.

Compound	concentration at 4 h [1] [µM]	IC50 (CYP3A4; human, 10 min, pH 7.4) [µM]	IC50 (human NK1 receptor [2]) [µM]	Inhibition (foot-tapping inhibition rate) (NK1 receptor) [%]	remaining activity at 0.1 µM (human NK1 receptor [3]) [%]	IC50 (CYP3A4) [µM]
Cc1cc(F)ccc1-c1cc(N2CCC(C(C)C(=O)O)CC2)nc(C#N)c1N(C)C(=O)C(C)(C)c1cc(C(F)(F)F)cc(C(F)(F)F)c1 (stereo not shown) [Example 8]	0.213	1.4	0.00225	100	69	
Cc1cc(F)ccc1-c1cc(N2CCC([C@@H](C)C(=O)O)CC2)ncc1N(C)C(=O)C(C)(C)c1cc(C(F)(F)F)cc(C(F)(F)F)c1 [Example 12, (R)-2-[5′-{[2-(3,5-Bistrifluoromethylphenyl)-2-methylpropionyl]methylaminol}-4′-(4-fluoro-2-methylphenyl)-3,4,5,6-tetrahydro-2H-[1,2]bipyridinyl-4-yl]propionic acid]			0.00744			4.6
